Laboratory results reported in article PMC3242765, “Inhibitors of Alphavirus Entry and Replication Identified with a Stable Chikungunya Replicon Cell Line and Virus-Based Assays” (PLoS ONE, 2011).
Values joined by “and” are separate entries in the source; they are usually repeats but may differ in a detail not shown here. Identical values can stand only once. Counter-ions that a name gives are not always drawn.

Columns and labels:
CHIKV replicon = test: microbe, parasite or virus in culture; assay type: cell-based, Chikungunya virus (CHIKV)

Molecule	CHIKV replicon % left (CHIKV replicon)	SFV replication % left (surviving fraction, remaining percentage of SFV replication) (SFV-Rluc)
Cl.Cl.OCCN1CCN(CC/C=C2/c3ccccc3Sc3ccc(C(F)(F)F)cc32)CC1 [Cis(Z)-Flupentixol dihydrochloride]	102.7%	92.6%
CCCCC1C(=O)N(c2ccccc2)N(c2ccc(O)cc2)C1=O (stereo not drawn) [Oxyphenbutazone]	100.4%	84.8%
C#CCN(C)[C@H](C)Cc1ccccc1 [Selegiline hydrochloride]	43.1%	57.0%
C[C@](N)(Cc1ccc(O)c(O)c1)C(=O)O [L-Methyldopa]	70.2%	99.1%
CCC(CN(C)C)(CN(C)C)OC(=O)c1ccccc1.Cl [Amydricaine hydrochloride]	74.3%	43.4%
CC(=O)NS(=O)(=O)c1ccc(NC(=O)c2ccccc2C(=O)O)cc1 [Phthalylsulfacetamide]	85.4%	110.6%
COc1ccc(O)c(C(C)(C)C)c1 [Butylated hydroxyanisole]	79.9%	66.8%
Nc1ccc(C(=O)O)cc1 [p-Aminobenzoic acid]	105.4%	56.5%
O[C@H]1[C@H](O)[C@@H](O)[C@H](O)[C@@H](O)[C@H]1O [Inositol]	89.5%	106.0%
CCOc1ccc2c(c1)C(C)=CC(C)(C)N2 [Ethoxyquin]	83.6%	96.4%
CC(Cc1ccc(O)cc1)NCC(O)c1cc(O)cc(O)c1 (stereo not drawn) [Fenoterol hydrobromide]	88.4%	106.6%
Cc1cc(=O)oc2cc(O)cc(O)c12 [5,7-Dihydroxy-4-methylcoumarin]	78.1%	66.7%
CN[C@H](C)[C@@H](O)c1ccc(O)cc1 [p-Hydroxyephedrine]	100.6%	94.4%
O=c1c(O)c(-c2ccc(O)c(O)c2)oc2cc(O)c(O)c(O)c12 [Quercetagetin]	85.2%	90.2%
O=C(O)c1ccc(O)c(O)c1 [3,4-Dihydroxybenzoic acid]	101.6%	124.5%
CN1C(=O)NC(=O)C(C)(C2=CCCCC2)C1=O (stereo not drawn) [Hexobarbital]	98.2%	121.3%
CCCCNc1ccc(C(=O)OCCN(C)C)cc1 [p-Butylaminobenzoyldimethylaminoethanol]	77.1%	45.4%
CCC(C)NCC(O)c1ccc2c(c1)CCCC2 (stereo not drawn) [Butidrine]	89.2%	73.1%
O=C(O)c1c(O)cccc1O [2,6-Dihydroxybenzoic acid]	62.3%	118.7%
O=c1ccc2ccccc2o1 [Coumarin]	85.0%	68.8%
O=C(O)c1ccccc1C(=O)Nc1ccc(S(=O)(=O)Nc2nccs2)cc1 [Phthalylsulfathiazole]	100.5%	113.7%
O=c1ccc2ccc(O)cc2o1 [Umbelliferone]	106.5% and 100.7%	93.1% and 78.4%
CCCCCCCCCCCCOC(=O)c1cc(O)c(O)c(O)c1 [Lauryl gallate]	6.1%	12.3%
O=c1cc(C(F)(F)F)c2cc3c4c(c2o1)CCCN4CCC3 [Coumarin 153]	96.1%	52.6%
CCn1cc(C(=O)O)c(=O)c2ccc(C)nc21 [Nalidixic acid]	100.4%	80.4%
Oc1cc(O)c2c(c1)O[C@H](c1ccc(O)c(O)c1)[C@@H](O)C2 [(+)-Catechin]	96.5%	64.5%

Molecule	CHIKV replicon % left (CHIKV replicon)	SFV replication % left (surviving fraction, remaining percentage of SFV replication) (SFV-Rluc)
Cc1nnc(NS(=O)(=O)c2ccc(N)cc2)s1 [Sulfamethizole]	79.1%	100.4%
Nc1ccc(S(N)(=O)=O)cc1 [Sulfanilamide]	100.5%	64.2%
CC(C)NCC(O)COc1cccc2[nH]ccc12 (stereo not drawn) [Pindolol]	72.1%	86.2%
CC(=O)NS(=O)(=O)c1ccc(N)cc1 [Sulfacetamide]	50.4%	100.8%
COc1cc(OC)c2ccc(=O)oc2c1 [Citropten]	106.4%	67.4%
Cc1ccc(C)c(O)c1 [2,5-Dimethylphenol]	100.5%	84.6%
Cc1cnc(NS(=O)(=O)c2ccc(N)cc2)nc1 [Sulfaperine]	100.8%	127.8%
CC(C)(C)NCC(O)COc1cccc2c1CC(O)C(O)C2 (stereo not drawn) [Nadolol]	63.3%	60.5%
CCN(CC)C(C)C(=O)c1ccccc1 (stereo not drawn) [Diethylpropion hydrochloride]	29.6%	47.1%
COc1cc2oc(=O)ccc2cc1O [Isoscopoletin]	99.4%	120.6%
C#C[C@]1(O)CC[C@H]2[C@@H]3CCc4cc(O)ccc4[C@H]3CC[C@@]21C [17 -a-ethynylestradiol]	59.8%	11.7%
COC(=O)C1=CCCN(C)C1 [Arecoline hydrobromide]	101.1%	83.6%
Tannic acid	82.0%	41.8%
O=c1c(-c2ccc(O)cc2)coc2cc(O)cc(O)c12 [Genistein]	62.1%	45.6%
CCCCNc1ccc(C(=O)OCCN(C)C)cc1 [Tetracaine hydrochloride]	71.1%	102.8%
O=c1oc2c3c4c(cc2c2c1CCC2)CCCN4CCC3 [Coumarin 106]	91.5%	82.1%
O=C(O)c1cccc(O)c1O [2,3-Dihydroxybenzoic acid]	105.1%	93.1%
NS(=O)(=O)c1cc2c(cc1Cl)N=CNS2(=O)=O [Chlorothiazide]	82.1%	90.3%
CC[C@@]1(O)C(=O)OCc2c1cc1n(c2=O)Cc2cc3ccccc3nc2-1 [Camptothecin]	100.4%	87.7%
Nc1ccc(S(=O)(=O)Nc2nccs2)cc1 [Sulfathiazole]	78.5%	138.1%
CCCC(C)C1(CC)C(=O)NC(=O)NC1=O (stereo not drawn) [Pentobarbital]	104.3%	70.5%
Cc1ccnc(NS(=O)(=O)c2ccc(N)cc2)n1 [Sulfamerazine]	91.1%	83.8%
Cc1cc(=O)oc2cc(O)ccc12 [Methylumbelliferone]	21.1%	12.0%
O=c1c(O)c(-c2cc(O)c(O)c(O)c2)oc2cc(O)cc(O)c12 [Myricetin]	49.1%	2.0%
COc1cnc(NS(=O)(=O)c2ccc(N)cc2)nc1 [Sulfameter]	79.2%	99.0%
